This passage reports RP-LC retention time results from the METLIN SMRT retention time set (Domingo-Almenara et al. 2019).

The data set can be described thus: gradient 5% acetonitrile 3 min, to 50% in 2 min, to 85% in 15 min, held 3 min, 100 µL/min. Conditions: column: Zorbax Extend-C18 2.1 x 50 mm; eluents: water / acetonitrile, 0.1% formic acid. Put shortly: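 Retention times come from adduct peaks that were picked computationally and then checked by hand. The standards, pure and pooled in mixtures of ~100 molecules, were run on a Zorbax Extend-C18 column (2.1 × 50 mm, 1.8 μm) at 100 μL/min with water and acetonitrile, each with 0.1% formic acid. Detection was by quadrupole time-of-flight mass spectrometry in positive and negative ionization mode, with a dead volume of 40 μL and a dwell volume of 900 μL.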
Turning to `COc1cc(OC)cc(C(=O)NCC(=O)Nc2nc3ccccc3[nH]2)c1`, the RP-LC retention time was found to be 635 s.
In turn, `O=C(C1CCCO1)N1CCC(c2cnn(-c3cccc(F)c3)c2)CC1` (stereo not given) showed an RP-LC retention time of 792 s.
As for `CC(C)(C)c1cccc(Nc2nc3ccncc3n(Cc3ccccc3)c2=O)c1`, the figure is 963 s; as for `COc1ccc(-c2noc(C3CCCN3C(=O)c3cccc(OC)c3)n2)cc1` (stereo not given), 937 s; as for `CCc1c(C(=O)O)nnn1-c1ccc2c(c1)CCC2`, 796 s.
As for `O=C(Nc1ccc2c(c1)OCCO2)C1CCN(c2cc(N3CCCC3)ncn2)CC1`, the figure is 630 s; as for `Cc1cc(=O)n(CC(=O)N2CCN(c3ccc(F)cc3)CC2)c(N2CCc3ccccc3C2)n1`, 799 s; as for `COc1cc2c(cc1OC)CN(C(=O)c1cc(-c3cccs3)[nH]n1)CC2`, 703 s.
To `O=C(C1CCC1)N1CCc2sc(S(=O)(=O)NCc3ccc(F)cc3Cl)cc2C1` belongs 948 s; to `CCN1CCC2(CC1)OC(=O)C(C)=C2C(=O)Nc1ccc(Br)cc1F`, 650 s; to `O=C(Nc1ncnc2c1CCC2)c1ccc(S(=O)(=O)N2CCCc3ccccc32)cc1`, 817 s.
Compound `CNC(=O)c1c(NC(=O)c2ccc(N(C)C)cc2)sc2c1CCC2` came in with an RP-LC retention time of 1030 s.
To `Cc1cnc(SCc2ccc(Cl)cc2Cl)[nH]c1=O` belongs 970 s; to `COc1cccc(NC(=O)CN2C(=O)c3ccccc3Sc3ncccc32)c1`, 776 s; to `CCOC(=O)c1[nH]c(C)c(CCC(=O)N2CCCC(C(=O)NCc3cc(OC)ccc3OC)C2)c1C` (stereo not given), 799 s.
To `COc1ccc2nc(C(=O)NCc3ccc(Cl)cc3)cn2n1` belongs 830 s; to `O=C(CCNc1cnc2cnccn12)NCCC1=CCCCC1`, 626 s; to `Cc1cc2n(n1)CCC(=O)N2CCCC(=O)NCc1ccco1`, 619 s.
As for `O=C(NC1CC1)C1CCCN(c2nccn3nc(-c4ccccc4Cl)cc23)C1` (stereo not given), the figure is 788 s.
In the case of `O=C(NCCc1cccs1)c1nnc(-c2ccc(S(=O)(=O)N3CCCCC3)cc2)o1`, the RP-LC retention time was 977 s.
`O=C([C@@H]1C[C@H](F)CN1S(=O)(=O)c1ccc(F)c(F)c1)N1CCCCC1` showed an RP-LC retention time of 780 s.
Compound `CC(C)n1cnc2cc(CNC(=O)c3cnccn3)ccc21` yielded an RP-LC retention time of 572 s.
For the compound `CC(C)N(C(=O)Cn1c(CNC(=O)c2ccco2)nc2ccccc21)c1ccccc1`, the RP-LC retention time was found to be 698 s.
To `Cc1ccc(C(=O)N2CCC(c3nc(-c4ccncc4)n[nH]3)CC2)s1` belongs 597 s; to `Cc1ccc(NC(=O)Cn2cnc3nc(N4CCC(C(=O)NC5CC5)CC4)sc3c2=O)cc1C`, 693 s.
As for `C=CCn1c(=O)c2c(nc3n2CCN3c2ccc(OC)cc2)n(C)c1=O`, the figure is 786 s; as for `CCSc1nnc(-c2nn(C)c3c2CN(S(=O)(=O)c2ccc(C)c(F)c2)CC3)n1CC`, 1000 s.
To `CSc1cccc(NC(=O)N2CC(c3nc(C)no3)C3(CCOCC3)C2)c1` (stereo not given) belongs 760 s; to `Cc1ccccc1N1CCN(C(=O)c2cn(-c3cc(N4CCSCC4)ncn3)cn2)CC1`, 1040 s.
`Cc1ccc(C)c(CNC(=O)C2CCCN(c3cnc4nccnc4c3)C2)c1` (stereo not given): the RP-LC retention time was found to be 759 s.
To `CCc1ccc(NC(=O)Cn2c(C)nc3c(sc4nc(-c5ccccc5)ccc43)c2=O)cc1` belongs 1120 s.
To `Cc1cc(C)cc(NC(=O)c2cc(C)n3nc(C)cc3n2)c1` belongs 1160 s.
As for `COCC1CN(C(=O)c2ccc(Cc3c(C)noc3C)o2)CC12CCNCC2` (stereo not given), the figure is 586 s; as for `COc1cccc(Oc2nccnc2N2CCC(C(=O)NCCC(C)C)CC2)c1`, 861 s.
Compound `Cc1cccc(Oc2nccnc2N2CCC(C(=O)NC(C)c3ccc(C)c(C)c3)CC2)c1` (stereo not given) displayed an RP-LC retention time of 1130 s.
With `Oc1c(Cl)cc(Cl)c2cccnc12`, the RP-LC retention time was determined as 1020 s.
To `CCOC(=O)c1c(C)[nH]c(C(=O)N2CCCC(C(=O)NCc3ccc4c(c3)OCO4)C2)c1C` (stereo not given) belongs 770 s; to `CCCC(=O)NC1(c2nc(-c3ccncc3)no2)CCCCC1`, 747 s.
To `CC(C)CNC(=O)CN1CCN(Cc2ccc(F)cc2Cl)C1=O` belongs 790 s; to `CCOc1ccc(-n2ccn3cc(-c4cccc(OC)c4)nc3c2=O)cc1`, 847 s.
To `CC1Oc2ccc(-c3csc(NC(=O)c4cccnc4)n3)cc2N(C)C1=O` (stereo not given) belongs 773 s.
`O=C(CS(=O)(=O)c1ccc(Cl)cc1)Nc1nc(-c2ccc3c(c2)OCO3)cs1` came in with an RP-LC retention time of 959 s.
To `CCCNC(=O)C1CCCN(c2ccc(SCC(=O)NCc3ccccc3Cl)nn2)C1` (stereo not given) belongs 661 s; to `COc1cccc(C(=O)N2CCC3(CC2)NC(=O)c2ccc(Cl)cc2N3)c1`, 746 s; to `CC(C)C(=O)N1CCc2cc(C(N)=O)ccc21`, 637 s.
`COc1ccc(NC(=O)c2c(-c3c(F)cccc3Cl)noc2C)cc1[N+](=O)[O-]`: the RP-LC retention time was found to be 992 s.
To `CC1(C(=O)NCc2ccccc2)CN(S(C)(=O)=O)CC(=O)N1Cc1ccc(F)cc1` (stereo not given) belongs 779 s.
As for `O=C(c1cc2cc(Br)ccc2oc1=O)N1CCN(c2ccccn2)CC1`, the figure is 616 s; as for `COCC(=O)N(C1CCOCC1)C1CCN(S(=O)(=O)c2cccc(F)c2)CC1`, 758 s; as for `COc1ccccc1-c1c(C)nn2c(N3CCN(c4ccccn4)CC3)cc(C)nc12`, 604 s.
To `CCc1ccc(-c2cc(C(F)(F)F)on2)cc1S(=O)(=O)N1CCC(C)CC1` belongs 1350 s.
On to `Cn1nc(C(=O)N2CCC(C(=O)N3CCCC3)CC2)c2c1CCN(C(=O)Cc1ccc(F)cc1)C2`, for which the RP-LC retention time was 679 s.
As for `Cc1ccc(NC(=O)N2CCC3(CC2)NC(=O)c2ccccc2O3)cc1F`, the figure is 799 s.
To `CCCNC(=O)c1cc(-c2ccc(F)cc2)cn1CC` belongs 925 s; to `Cc1ccc(NC(=O)N2CCC(CN3CCCC(C)C3)CC2)cc1` (stereo not given), 613 s.
To `COc1ccc(NC(=O)Nc2nccn(-c3cccc(F)c3)c2=O)cc1OC` belongs 798 s; to `CCOc1ccc(S(=O)(=O)Nc2cc(-c3cn4cccc(C)c4n3)ccc2C)cc1`, 722 s.
With `CCOC(=O)c1c(S(=O)(=O)N2CCC(C(=O)Nc3ccccc3)CC2)c(C)n(CC)c1C`, the RP-LC retention time worked out at 795 s.
In turn, `O=C(NCC1CCN(Cc2ccsc2)CC1)Nc1ccc2c(c1)OCO2` gave an RP-LC retention time of 554 s.
Turning to `O=C(C1CC(=O)N(c2n[nH]c3cccc(F)c23)C1)N1CCc2ccccc2C1` (stereo not given), the RP-LC retention time came to 752 s.
As for `O=C(Cc1ccc(Cl)cc1)N1CCN(c2ccc(Nc3ccccn3)nn2)CC1`, the figure is 603 s.
As for `Cc1cc(=O)n(CC(=O)NCc2ccccc2Cl)c(N(C)Cc2ccccc2)n1`, the figure is 762 s; as for `Cc1ccc(Cn2nc3ccc(S(=O)(=O)N4CCCC4)cn3c2=O)cc1C`, 952 s; as for `CCN(CCN(C)C)c1ccc(NS(=O)(=O)c2ccccc2)cc1C(=O)O`, 582 s.
As for `Cc1cc(C(=O)NC(C)C)c2cccc(Cl)c2n1`, the figure is 718 s; as for `Cc1ccc(C)c(Cn2nc3ccc(S(=O)(=O)N4CCc5ccccc5C4)cn3c2=O)c1`, 1100 s; as for `CCS(=O)(=O)N1CC(=O)N(c2ccc(F)cc2)C(C)(C(=O)NC2CCCCCCC2)C1` (stereo not given), 938 s.
`O=C(c1ccc(F)cc1)N1CCC2(CC1)OCC(C(=O)N1CCCC1)N2C(=O)c1cccc(F)c1` (stereo not given) gave an RP-LC retention time of 715 s.
To `COC(=O)c1cc2ccsc2n1Cc1cccc(C#N)c1` belongs 1010 s; to `CCN(CC)C(=O)CN1C(=O)COc2ccc(C(=O)N3CCCCC3)cc21`, 695 s; to `CCc1noc(-c2nc(-c3ccc(OC)c(F)c3)no2)n1`, 926 s.
As for `O=C(c1cc2c(=O)n(Cc3ccccc3)ccc2s1)N1CCCCCC1`, the figure is 876 s; as for `Cc1ccc(CNC(=O)C2CCN(c3nc4cccnc4s3)CC2)o1`, 704 s; as for `Cn1c(CC2CCN(S(=O)(=O)Cc3ccc(F)cc3Cl)C2)nc2cccnc21` (stereo not given), 650 s.
On to `N#CC[C@@H](C1CCCC1)n1cc(-c2ncnc3[nH]ccc23)cn1`, for which the RP-LC retention time amounted to 689 s.
In turn, `CC1=C(c2ccc(Cl)cc2)S(=O)(=O)N=C1N1CCCN(C(=O)NC(C)(C)C)CC1` had an RP-LC retention time of 871 s.
As for `Cc1nn(CCC(=O)Nc2ccccc2Cl)c(=O)c2nn(-c3ccccc3)c(C)c12`, the figure is 827 s.
To `CCn1nc(CNC(=O)C2CCC2)c2ccccc21` belongs 748 s; to `CCCN1CCN(CCCNC(=O)C(C)n2c3ccccc3c3cnn(C)c(=O)c32)CC1` (stereo not given), 571 s; to `Cc1ccn(-c2ccc(C(=O)NC3CCCC3)cn2)n1`, 815 s.
